We go through six molecules from the supplement of paper PMC4862054.

“And” between values parts separate entries of the source, which are not always exact repeats. Identical values can stand only once.

For assay [1], the system named is MDA-MB-453. As to the kind of experiment: normalised viability (% of control), CellTiter-Blue; higher = more viable cells (about 100 = DMSO control). The conditions noted are these: incubation time: 72 h. A digest of the protocol: (§1)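 Vehicle (100) and a positive kill control (0) anchored the normalisation of each plate, and Z'-factor was used for quality control. Breast cancer cell lines in 20 µl suspension were incubated 72 h over compound in 5 µl medium in 384-well plates, followed by CellTiter-Blue at 560/590 nm. The value is normalised viability at a single listed concentration of the series.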

The test system of assay [2] is BT-474. The description is as above. The settings on record: incubation time: 72 h. In a few lines:
as §1

The test system of assay [3] is HDQ-P1. The assay is described as above. The conditions noted are these: incubation time: 72 h. A digest of the protocol: as §1
Assay [4] concerns HCC1599. The assay is described as above. The settings on record: incubation time: 72 h. In a few lines:
as §1

Assay [5] deals with MDA-MB-468. Described as above. The settings on record: incubation time: 72 h. In a few lines: as §1
The test system of assay [6] is CAL-148. The assay is described as above. The settings on record: incubation time: 72 h. A digest of the protocol:
as §1

For assay [7], the system named is MDA-MB-453. The settings on record: 72 h. Here is the method:
(§2)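 Drug sensitivity and resistance testing (DSRT) of breast cancer cell lines in 384-well plates, 5 concentrations in 10-fold dilutions over a compound-specific 10,000-fold range. After 72 h, cytotoxicity was read by CellTox Green fluorescence and viability by CellTiter-Glo luminescence (multiplexed), normalised to DMSO and benzethonium chloride controls. EC50 is the inflection point of the fitted dose-response curve (bottom asymptote free, so it can be relative for partial curves) and is censored at the highest tested concentration. Rows with DSS 0 (no meaningful response) were excluded.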

In assay [8] the test system is Hs578T. The settings on record: 72 h. Here is the method:
as §2

In assay [9] the test system is DU-4475. The conditions noted are these: 72 h. In a few lines: (§3)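 Breast cancer cell lines in 20 µl suspension were seeded onto 384-well plates pre-loaded with compound dissolved in 5 µl medium, then incubated 72 h. For viability, 2.5 µl CellTiter-Blue was added for 2 h at 37 °C and fluorescence read at 560/590 nm. Each plate was normalised to vehicle and a positive kill control and checked by Z'-factor. EC50 comes from the fitted percent-inhibition dose-response curve, censored at the highest concentration; rows with zero drug sensitivity score were dropped.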

Assay [10] has as its system CAL-85-1. The conditions noted are these: 72 h. A digest of the protocol:
as §3

Assay [11] relates to CAL-51. The settings on record: 72 h. A digest of the protocol: as §3
Assay [12] has as its system HDQ-P1. The conditions noted are these: 72 h. In a few lines:
as §3

Assay [13] concerns CAL-148. The conditions noted are these: 72 h. In a few lines:
as §3

Assay [14] concerns MFM-223. The settings on record: 72 h. In a few lines:
as §3

For assay [15], the system named is BT-549. The settings on record: 72 h. A digest of the protocol:
as §3

For assay [16], the system named is HCC1143. The settings on record: 72 h. In a few lines:
as §3

For assay [17], the system named is CAL-120. The settings on record: 72 h. A digest of the protocol:
as §3

Assay [18] deals with MDA-MB-231. The settings on record: 72 h. A digest of the protocol: as §3
Assay [19] relates to SK-BR-3. The settings on record: 72 h. In a few lines: as §3
Assay [20] has as its system BT-474. The conditions noted are these: 72 h. A digest of the protocol:
as §3

The test system of assay [21] is Hs578T. The conditions noted are these: 72 h. A digest of the protocol: as §3
The source holds these as a separate data set.

Assay [22] deals with HCC1937. The settings on record: 72 h. In a few lines: as §3
In assay [23] the test system is MDA-MB-436. The conditions noted are these: 72 h. A digest of the protocol:
as §3

Assay [24] deals with HCC1599. The settings on record: 72 h. A digest of the protocol:
as §3

Assay [25] concerns MDA-MB-468. The conditions noted are these: 72 h. A digest of the protocol:
as §3

In assay [26] the test system is MFM-223. The conditions noted are these: 72 h. In a few lines:
(§4)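 Two sequential readouts followed a 72 h incubation of breast cancer cell lines with compound at 5 concentrations in 10-fold steps over a compound-specific 10,000-fold range: CellTox Green fluorescence (485/520 nm) for cell death, then CellTiter-Glo luminescence, after 10 min at room temperature, for viability. Each plate was normalised to 0.1 % DMSO and a positive kill control. Dose-response curves were fitted for EC50, censored at the top concentration.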
The source holds these as a separate data set.

For assay [27], the system named is DU-4475. The settings on record: 72 h. In a few lines: as §4
This is another data set of the same source.

Assay [28] deals with CAL-85-1. The settings on record: 72 h. Here is the method:
as §2
This is another data set of the same source.

In assay [29] the test system is HCC1143. The conditions noted are these: 72 h. A digest of the protocol:
as §4
This is another data set of the same source.

Assay [30] deals with HDQ-P1. The settings on record: 72 h. A digest of the protocol: as §4
The source holds these as a separate data set.

Assay [31] deals with CAL-148. The conditions noted are these: 72 h. A digest of the protocol: as §4
The source holds these as a separate data set.

Assay [32] has as its system BT-549. The settings on record: 72 h. Here is the method:
as §2
The source holds these as a separate data set.

The test system of assay [33] is MDA-MB-231. The conditions noted are these: 72 h. Here is the method:
as §2
The source holds these as a separate data set.

Assay [34] relates to CAL-51. The conditions noted are these: 72 h. Here is the method: as §2
This is another data set of the same source.

For assay [35], the system named is BT-474. The conditions noted are these: 72 h. Here is the method:
as §2
This is another data set of the same source.

Assay [36] concerns HCC1937. The conditions noted are these: 72 h. Here is the method:
as §2
This is another data set of the same source.

The test system of assay [37] is MDA-MB-436. The conditions noted are these: 72 h. Here is the method:
as §2
This is another data set of the same source.

For assay [38], the system named is HDQ-P1. The settings on record: 72 h. Here is the method: as §2
This is another data set of the same source.

For assay [39], the system named is MDA-MB-468. The conditions noted are these: 72 h. Here is the method:
as §2
This is another data set of the same source.

Assay [40] has as its system CAL-148. The settings on record: 72 h. Here is the method:
as §2
This is another data set of the same source.

For the molecule `Cc1cc2c(C(C)C)c(O)c(O)c(C=O)c2c(O)c1-c1c(C)cc2c(C(C)C)c(O)c(O)c(C=O)c2c1O` [Gossypol], the normalised viability in assay [1] (300 nM) worked out at 103%; in assay [2] (10000 nM) it was 21.5%; in assay [3] (300 nM) it was 141%; in assay [4] (10000 nM) it was 47.2%; in assay [5] (10000 nM), 6.5%; in assay [6] (300 nM) it was 109%.

On to `Cc1ccc(NC(=O)c2ccc(CN3CCN(C)CC3)cc2)cc1Nc1nccc(-c2cccnc2)n1` [Imatinib], for which the normalised viability in assay [2] (1000 nM) was 111%; in assay [3] (30 nM) it was 89.2% and 107%; in [4] (1000 nM), 109% and 102%; in assay [5] (1000 nM), 106% and 109%; in assay [6] (30 nM) it was 89.8% and 88.6%. In addition, the “EC50, CellTox Green” value is 2820 nM in assay [7] and more than 10000 nM in assay [8].

Consider `Cn1c(=O)n(-c2ccc(C(C)(C)C#N)cc2)c2c3cc(-c4cnc5ccccc5c4)ccc3ncc21` [NVP-BEZ235], for which the “EC50, CellTiter-Blue viability” value in [9] is 54 nM; in assay [10], 12.6 nM; in assay [11] it was 10.1 nM; in [12] it was 10.8 nM; in [13], 17.6 nM; in [14], 7.73 nM. Further, the “EC50, CellTiter-Blue viability” value in assay [15] was determined as 12.8 nM; in [16], 15.2 nM; in assay [17] it was 10.1 nM; in assay [18], 12.9 nM; in [19] it was 26.4 nM; in assay [20] it was 21.7 nM. Also, the “EC50, CellTiter-Blue viability” value in assay [21] is 8.08 nM; in assay [22], 6.87 nM; in assay [23], 52.5 nM; in assay [24], 20.8 nM; in assay [25], 27.1 nM. Also, the normalised viability in assay [1] (3 nM) stood at 87.9%; in assay [2] (100 nM) it was 42.9%; in assay [3] (3 nM) it was 94.5%; in assay [4] (100 nM), 64.8%; in assay [5] (100 nM) it was 37%; in assay [6] (3 nM) it was 93%.

On to `COc1ccccc1S(=O)(=O)Nc1ccc2c(c1)CN(C)C(=O)N2` [PFI-1], for which the “EC50, CellTiter-Glo” value in [26] was 3190 nM; in assay [27] it was 2670 nM. The “EC50, CellTox Green” value in [28] was 9560 nM.

On to `CNNCc1ccc(C(=O)NC(C)C)cc1` [Procarbazine], for which the normalised viability in assay [1] (30 nM) stood at 114%; in assay [2] (1000 nM), 114%; in [3] (30 nM), 103%; in assay [4] (1000 nM), 88.9%; in assay [5] (1000 nM), 124%; in assay [6] (30 nM), 101%.

As for `CN(C)C[C@@H]1CCn2cc(c3ccccc32)C2=C(C(=O)NC2=O)c2cn(c3ccccc23)CCO1` [Ruboxistaurin], the “EC50, CellTiter-Glo” value is 3220 nM in assay [26]; 9320 nM in [29]; 3790 nM in [27]; 2720 nM in assay [30]; 1750 nM in assay [31]. In addition, the “EC50, CellTiter-Blue viability” value in assay [9] turned out to be 2740 nM; in assay [11] it was 4800 nM; in assay [12], 3540 nM; in assay [13], 4840 nM; in assay [14], 1480 nM; in assay [15], 8000 nM. Besides, the “EC50, CellTiter-Blue viability” value worked out at 6140 nM in [17]; 4700 nM in assay [18]; 2400 nM in assay [19]; 2790 nM in assay [20]; 8920 nM in assay [21]; 4090 nM in assay [22]. Besides, the entries for the “EC50, CellTiter-Blue viability” value in [23], in assay [24] and in assay [25] were 505 nM, 1730 nM and 2690 nM, respectively. Also, the normalised viability was 99.9% in [1] (30 nM); 93.1% in [2] (1000 nM); 84.3% in [3] (30 nM); 91.3% in assay [4] (1000 nM); 85.2% in assay [5] (1000 nM); 116% in assay [6] (30 nM). The “EC50, CellTox Green” value stood at 7220 nM in assay [32]; 3790 nM in assay [7]; 2010 nM in [33]; 2320 nM in [28]; 1580 nM in assay [34]; 370 nM in [35]. Further, the “EC50, CellTox Green” value in [36] came to 7550 nM; in [37], 1000 nM; in assay [38] it was 5090 nM; in [39] it was 2490 nM; in assay [40] it was 999 nM.
